In patent US12187713B2, “Immunomodulators, compositions and methods thereof” (Betta Pharmaceuticals Co., Ltd, priority 2019, dated 2025):

Target: PD-1/PD-L1 (Homo sapiens (Human), UniProt Q9NZQ7)
Assay: PD-1/PD-L1 Binding Assay (Alphascreen)
Procedure, shortened: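 PD-1/PD-L1 binding detected by anti-6×His acceptor and streptavidin donor beads after 120 min in the dark at 25 °C. Beforehand, the two proteins were incubated 15 min at 25 °C with inhibitor at 0.015–300 nM (1% DMSO). IC50 comes from a log concentration–response curve.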

PD-1/PD-L1, sequence (Q9NZQ7 19-238): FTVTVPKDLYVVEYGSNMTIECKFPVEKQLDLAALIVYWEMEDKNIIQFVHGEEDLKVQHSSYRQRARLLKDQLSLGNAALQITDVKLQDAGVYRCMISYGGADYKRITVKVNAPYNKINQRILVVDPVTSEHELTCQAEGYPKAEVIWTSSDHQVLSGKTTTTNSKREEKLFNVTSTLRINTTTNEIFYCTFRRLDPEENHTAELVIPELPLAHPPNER

Compound | IC50 (range symbols) | IC50 (numeric values)
Cc1c(-c2ccc([C@H](N)C(=O)O)cc2)cccc1-c1cccc(-c2nc3cc(CN4CCC[C@H]4C(=O)O)c(OC(F)F)cc3o2)c1C [Example 256, ((2-(4″-((S)-amino(carboxy)methyl)-2,2′-dimethyl-[1,1′:3′,1″-terphenyl]-3-yl)-6-(difluoromethoxy)benzo[d]oxazol-5-yl)methyl)-L-proline] | > 50 nM | –
Cc1c(Nc2nccc3cc(CN4CCC(O)C4)cnc23)cccc1-c1cccc(-c2nc3cc(CN4CC[C@@H](C(=O)O)C4)c(OC(F)F)cc3o2)c1C (stereo partly drawn) [Example 181, (3R)-1-((6-(difluoromethoxy)-2-(3′-((3-((3-hydroxypyrrolidin-1-yl)methyl)-1,7-naphthyridin-8-yl)amino)-2,2′-dimethyl-[1,1′-biphenyl]-3-yl)benzo[d]oxazol-5-yl)methyl)pyrrolidine-3-carboxylic acid] | 0.1 to 5 nM | –
CC[C@@H]1CCN1Cc1cc2nc(-c3cccc(-c4cccc(-c5nc6cc(CN7CCC[C@H]7C(=O)O)c(OC(F)F)cc6o5)c4C)c3C)oc2cc1OC(F)F [Example 42, ((6-(difluoromethoxy)-2-(3′-(6-(difluoromethoxy)-5-(((R)-2-ethylazetidin-1-yl)methyl)benzo[d]oxazol-2-yl)-2,2′-dimethyl-[1,1′-biphenyl]-3-yl)benzo[d]oxazol-5-yl)methyl)-L-proline] | 0.1 to 5 nM | –
Cc1c(-c2nc3cc(CN(C)CCO)c(OC(F)F)cc3o2)cccc1-c1cccc(-c2nc3cc(CN4CCC[C@H]4C(=O)O)c(OC(F)F)cc3o2)c1C [Example 17, ((6-(difluoromethoxy)-2-(3′-(6-(difluoromethoxy)-5-(((2-hydroxyethyl)(methyl)amino)methyl)benzo[d]oxazol-2-yl)-2,2′-dimethyl-[1,1′-biphenyl]-3-yl)benzo[d]oxazol-5-yl)methyl)-L-proline] | – | 1.2 nM
Cc1c(Nc2nccc3cc(CN4CCC(F)C4)cnc23)cccc1-c1cccc(-c2nc3cc(CN4CCC[C@H]4C(=O)O)c(OC(F)F)cc3o2)c1C (stereo partly drawn) [Example 174, ((6-(difluoromethoxy)-2-(3′-((3-((3-fluoropyrrolidin-1-yl)methyl)-1,7-naphthyridin-8-yl)amino)-2,2′-dimethyl-[1,1′-biphenyl]-3-yl)benzo[d]oxazol-5-yl)methyl)-L-proline] | – | 21 nM
Cc1c(-c2nc3cc(CN4CCC[C@H]4C(=O)O)c(OC(F)F)cc3o2)cccc1-c1cccc(-c2nc3cc(CN4CC(C)C(N)C4)cc(C#N)c3o2)c1C (some centres unmarked) [Example 156] | 0.1 to 5 nM | –
Cc1c(-c2ccc(CN3CCCC3)c(C(=O)O)c2)cccc1-c1cccc(-c2nc3cc(CN4CCC[C@H]4C(=O)O)c(OC(F)F)cc3o2)c1C [Example 236, ((2-(3″-carboxy-2,2′-dimethyl-4″-(pyrrolidin-1-ylmethyl)-[1,1′:3′,1″-terphenyl]-3-yl)-6-(difluoromethoxy)benzo[d]oxazol-5-yl)methyl)-L-proline] | – | 290 nM
Cc1c(-c2ccc3c(c2)CN(C(C)C(=O)O)C3)cccc1-c1cccc(-c2nc3cc(CN4CCC[C@H]4C(=O)O)c(OC(F)F)cc3o2)c1C (stereo partly drawn) [Example 292, ((2-(3′-(2-(1-carboxyethyl)isoindolin-5-yl)-2,2′-dimethyl-[1,1′-biphenyl]-3-yl)-6-(difluoromethoxy)benzo[d]oxazol-5-yl)methyl)-L-proline] | 5 to 50 nM | –
COC(=O)N[C@H](C(=O)N[C@H]1CCN(Cc2ccc(-c3cccc(-c4cccc(-c5nc6cc(CN7CCC[C@H]7C(=O)O)c(OC(F)F)cc6o5)c4C)c3C)cc2)C1)C(C)C [Example 257, ((6-(difluoromethoxy)-2-(4″-(((S)-3-((S)-2-((methoxycarbonyl)amino)-3-methylbutanamido)pyrrolidin-1-yl)methyl)-2,2′-dimethyl-[1,1′:3′,1″-terphenyl]-3-yl)benzo[d]oxazol-5-yl)methyl)-L-proline] | – | 4.4 nM
Cc1c(-c2ccc(CN3CCCC3)c(OCCc3ccc(F)cc3)c2)cccc1-c1cccc(-c2nc3cc(CN4CCC[C@H]4C(=O)O)c(OC(F)F)cc3o2)c1C [Example 249, ((6-(difluoromethoxy)-2-(3″-(4-fluorophenethoxy)-2,2′-dimethyl-4″-(pyrrolidin-1-ylmethyl)-[1,1′:3′,1″-terphenyl]-3-yl)benzo[d]oxazol-5-yl)methyl)proline] | 5 to 50 nM | –
Cc1c(-c2nc3cc(CN4CCC[C@@H]4C(=O)O)c(OC(F)F)cc3o2)cccc1-c1cccc(-c2nc3cc(CN4CC(C)(C)C4)cc(C#N)c3o2)c1C [Example 140, ((2-(3′-(7-cyano-5-((3,3-dimethylazetidin-1-yl)methyl)benzo[d]oxazol-2-yl)-2,2′-dimethyl-[1,1′-biphenyl]-3-yl)-6-(difluoromethoxy)benzo[d]oxazol-5-yl)methyl)-D-proline] | 0.1 to 5 nM | –
Cc1c(-c2nc3cc(CN4CCC[C@@H]4C(=O)O)c(OC(F)F)cc3o2)cccc1-c1cccc(-c2nc3cc(CN4CC[C@@H](C)C4)cc(C#N)c3o2)c1C [Example 132, ((2-(3′-(7-cyano-5-(((R)-3-methylpyrrolidin-1-yl)methyl)benzo[d]oxazol-2-yl)-2,2′-dimethyl-[1,1′-biphenyl]-3-yl)-6-(difluoromethoxy)benzo[d]oxazol-5-yl)methyl)-D-proline] | – | 2 nM
Cc1c(-c2nc3cc(CN4CCC[C@H]4C(=O)O)c(OC(F)F)cc3o2)cccc1-c1cccc(-c2nc3cc(CN4CCCC4)cnc3o2)c1C [Example 112, ((6-(difluoromethoxy)-2-(2,2′-dimethyl-3′-(6-(pyrrolidin-1-ylmethyl)oxazolo[5,4-b]pyridin-2-yl)-[1,1′-biphenyl]-3-yl)benzo[d]oxazol-5-yl)methyl)-L-proline] | 0.1 to 5 nM | –
Cc1c(-c2nc3cc(CN4CCCC4(C)C)ccc3o2)cccc1-c1cccc(-c2nc3cc(CN4CCC[C@H]4C(=O)O)c(OC(F)F)cc3o2)c1C [Example 311, ((6-(difluoromethoxy)-2-(3′-(5-((2,2-dimethylpyrrolidin-1-yl)methyl)benzo[d]oxazol-2-yl)-2,2′-dimethyl-[1,1′-biphenyl]-3-yl)benzo[d]oxazol-5-yl)methyl)-L-proline] | 0.1 to 5 nM | –
Cc1c(-c2nc3cc(CN4CC[C@@H]4CO)c(OC(F)F)cc3o2)cccc1-c1cccc(-c2nc3cc(CN4CCC[C@H]4C(=O)O)c(OC(F)F)cc3o2)c1C [Example 35, ((6-(difluoromethoxy)-2-(3′-(6-(difluoromethoxy)-5-(((R)-2-(hydroxymethyl)azetidin-1-yl)methyl)benzo[d]oxazol-2-yl)-2,2′-dimethyl-[1,1′-biphenyl]-3-yl)benzo[d]oxazol-5-yl)methyl)-L-proline] | – | 0.91 nM
Cc1c(-c2nc3cc(CN4CC(C)(O)C4)c(OC(F)F)cc3o2)cccc1-c1cccc(-c2nc3cc(CN4CCC[C@H]4C(=O)O)c(OC(F)F)cc3o2)c1C [Example 44, ((6-(difluoromethoxy)-2-(3′-(6-(difluoromethoxy)-5-((3-hydroxy-3-methylazetidin-1-yl)methyl)benzo[d]oxazol-2-yl)-2,2′-dimethyl-[1,1′-biphenyl]-3-yl)benzo[d]oxazol-5-yl)methyl)-L-proline] | – | 1.1 nM
Cc1c(-c2nc3cc(CN4CC(C)(C#N)C4)c(OC(F)F)cc3o2)cccc1-c1cccc(-c2nc3cc(CN4CCC[C@H]4C(=O)O)c(OC(F)F)cc3o2)c1C [Example 79, ((2-(3′-(5-((3-cyano-3-methylazetidin-1-yl)methyl)-6-(difluoromethoxy)benzo[d]oxazol-2-yl)-2,2′-dimethyl-[1,1′-biphenyl]-3-yl)-6-(difluoromethoxy)benzo[d]oxazol-5-yl)methyl)-L-proline] | 0.1 to 5 nM | –
Cc1cc(-c2cccc(-c3cccc(-c4nc5cc(CN6CCC[C@H]6C(=O)O)c(OC(F)F)cc5o4)c3C)c2C)cc(C)c1CN1CCCC1 [Example 234, ((6-(difluoromethoxy)-2-(2,2′,3″,5″-tetramethyl-4″-(pyrrolidin-1-ylmethyl)-[1,1′:3′,1″- terphenyl]-3-yl)benzo[d]oxazol-5-yl)methyl)-L-proline] | – | 0.52 nM
Cc1c(-c2nc3cc(CN4CCC[C@H]4C(=O)O)c(OC(F)F)cc3o2)cccc1-c1cccc(-c2nc3cc(CN4CCC45COC5)c(OC(F)F)cc3o2)c1C [Example 39, ((2-(3′-(5-((6-oxa-1-azaspiro[3.3]heptan-1-yl)methyl)-6-(difluoromethoxy)benzo[d]oxazol-2-yl)-2,2′-dimethyl-[1,1′-biphenyl]-3-yl)-6-(difluoromethoxy)benzo[d]oxazol-5-yl)methyl)-L-proline] | – | 2.4 nM
Cc1c(-c2ccc(CN3CCCC3)nc2)cccc1-c1cccc(-c2nc3cc(CN4CCC[C@H]4C(=O)O)c(OC(F)F)cc3o2)c1C [Example 263, ((6-(difluoromethoxy)-2-(2,2′-dimethyl-3′-(6-(pyrrolidin-1-ylmethyl)pyridin-3-yl)-[1,1′-biphenyl]-3-yl)benzo[d]oxazol-5-yl)methyl)-L-proline] | – | 0.98 nM
Cc1c(-c2nc3cc(CN4CC5CNCC5C4)c(OC(F)F)cc3o2)cccc1-c1cccc(-c2nc3cc(CN4CCC[C@H]4C(=O)O)c(OC(F)F)cc3o2)c1C (stereo partly drawn) [Example 50, ((6-(difluoromethoxy)-2-(3′-(6-(difluoromethoxy)-5-((hexahydropyrrolo [3,4-c]pyrrol-2(1H)-yl)methyl)benzo[d]oxazol-2-yl)-2,2′-dimethyl-[1,1′-biphenyl]-3-yl)benzo[d]oxazol-5-yl)methyl)-L-proline] | 0.1 to 5 nM | –
Cc1c(-c2nc3cc(CN4CCC[C@H]4C(=O)O)c(OC(F)F)cc3o2)cccc1-c1cccc(-c2cnc(CN3CCCC3)c(F)c2)c1C(F)F [Example 268, ((6-(difluoromethoxy)-2-(2′-(difluoromethyl)-3′-(5-fluoro-6-(pyrrolidin-1-ylmethyl)pyridin-3-yl)-2-methyl-[1,1′-biphenyl]-3-yl)benzo[d]oxazol-5-yl)methyl)-L-proline] | 0.1 to 5 nM | –
Cc1c(Nc2nccc3cc(CN4CCCC[C@H]4C(=O)O)cnc23)cccc1-c1cccc(-c2nc3cc(CN4CCC[C@H]4C(=O)O)c(OC(F)F)cc3o2)c1C [Example 173, (S)-1-((8-((3′-(5-(((S)-2-carboxypyrrolidin-1-yl)methyl)-6-(difluoromethoxy)benzo[d]oxazol-2-yl)-2,2′-dimethyl-[1,1′-biphenyl]-3-yl)amino)-1,7-naphthyridin-3-yl)methyl)piperidine-2-carboxylic acid] | – | 0.93 nM
